The record followed here is patent US7632783B2 (priority 2004, dated 2009).

In test [1] the test system is gray mold (Botrytis cinerea). In words: Tomato gray mold control test (preventive effects). Type of test: in vivo. The conditions noted are these: potted tomato (giant Fukuju variety), spraying liquid 300 ppm before spore inoculation, investigated 2 days after inoculation, levels 0 to 3. On the procedure:
Bulk drug was dissolved in a mixed solution of dimethylsulfoxide and methanol (volume ratio: 7/3), and spraying liquids containing 300 ppm of compounds of the present invention were uniformly sprayed onto potted test plants (tomato: giant Fukuju variety) in the second to third leaf stage. […], a suspension of pathogen spores were inoculated by spraying onto the pots in an inoculation room at a room temperature of 20 to 23° C. to promote the onset of disease. The degree of disease onset was investigated 2 days after inoculation. The test was carried out in duplicate.
Furthermore, the degree of disease onset was evaluated to one of four levels from 0 to 3 according to the criteria below by macroscopically observing the degree of disease onset of the test plants.
1: Degree of disease onset less than 40% of the untreated area
2: Degree of disease onset 40% to less than 80% of the untreated area
3: Degree of disease onset 80% or more

For test [2], the system named is rice blast (Pyricularia oryzae). The format is in vivo. The conditions noted are these: potted rice (variety Karakaze), spraying liquid 300 ppm after spore inoculation, observed 7 days after inoculation, levels 0 to 3.

`Cc1cccc2cc(C3=NC(C)(C)Cc4c(F)cccc43)cnc12` [Example 14, 3-(5-fluoro-3,3-dimethyl-3,4-dihydroisoquinolin-1-yl)-8-methylquinoline]: the “degree of disease onset” value in test [1] and in test [2] was 0 throughout.

On to `CC1(C)Cc2c(Cl)cccc2C(c2cnc3ccccc3c2)=N1` [Example 18, 3-(5-chloro-3,3-dimethyl-3,4-dihydroisoquinolin-1-yl)quinoline], for which the “degree of disease onset” value in test [1] and in test [2] was 0 each time. For `CC1(C)Cc2c(F)cccc2C(c2cnc3ccccc3c2)=N1` [Example 2, 3-(5-fluoro-3,3-dimethyl-3,4-dihydroisoquinolin-1-yl)quinoline], the “degree of disease onset” value in test [1] and in test [2] was 0 each time. In the case of `CC1(C)Cc2ccc(Cl)cc2C(c2cnc3ccccc3c2)=N1` [Example 21, 3-(7-chloro-3,3-dimethyl-3,4-dihydroisoquinolin-1-yl)quinoline], the “degree of disease onset” value in test [1] and in test [2] was 0 each time.

Consider `CC1(c2ccc(Cl)cc2)Cc2ccccc2C(c2cnc3ccccc3c2)=N1` (stereo not drawn) [Example 73, 3-[3-(4-chlorophenyl)-3-methyl-3,4-dihydroisoquinolin-1-yl]quinoline], for which the “degree of disease onset” value in test [1] and in test [2] was 0 in each case. For the compound “3-(5-fluoro-3,3-dimethyl-3,4-dihydroisoquinolin-1-yl)quinoline salicylate [Example 108]”, the “degree of disease onset” value in test [1] and in test [2] was 0 each time. Consider `CC1(C)c2c(F)cccc2C(c2cnc3ccccc3c2)=[N+]([O-])C1(C)C` [Example 204, 3-(5-fluoro-3,3,4,4-tetramethyl-2-oxide-3,4-dihydroisoquinolin-1-yl)quinoline], for which the “degree of disease onset” value in test [1] and in test [2] was 0 each time. Take `CC1(c2ccccc2)Cc2ccccc2C(c2cnc3ccccc3c2)=N1` (stereo not drawn) [Example 71, 3-(3-methyl-3-phenyl-3,4-dihydroisoquinolin-1-yl)quinoline]: the “degree of disease onset” value in test [1] and in test [2] was 0 in each case. `C#Cc1cccc2c1CC(C)(C)N=C2c1cnc2ccccc2c1` [Example 30, 3-(5-ethynyl-3,3-dimethyl-3,4-dihydroisoquinolin-1-yl)quinoline]: the “degree of disease onset” value in test [1] and in test [2] was 0 each time.

`CC1(C)Cc2c(F)cccc2C2(c3cnc4ccccc4c3)ON12` (stereo not drawn) [Example 197, 5-fluoro-3,3-dimethyl-8b-quinolin-3-yl-4,8b-dihydro-3H-oxazileno[3,2-a]isoquinoline]: the “degree of disease onset” value in test [1] and in test [2] was 0 in each case.

Take `CC1(C)Cc2c(Br)cccc2C(c2cnc3ccccc3c2)=N1` [Example 22, 3-(5-bromo-3,3-dimethyl-3,4-dihydroisoquinolin-1-yl)quinoline]: the “degree of disease onset” value in test [1] and in test [2] was 0 throughout. Turning to `Cc1cccc2cc(C3=NC(C)(C)C(C)(C)c4c(F)cccc43)cnc12` [Example 165, 3-(5-fluoro-3,3,4,4-tetramethyl-3,4-dihydroisoquinolin-1-yl)-8-methylquinoline], the “degree of disease onset” value in test [1] and in test [2] was 0 throughout. In the case of `CC1(C)N=C(c2cnc3ccccc3c2)c2cccc(F)c2C1(C)C` [Example 114, 3-(5-fluoro-3,3,4,4-tetramethyl-3,4-dihydroisoquinolin-1-yl)quinoline], the “degree of disease onset” value in test [1] and in test [2] was 0 each time. For `CC1(C)c2cc(Cl)ccc2C(c2cnc3ccccc3c2)=[N+]([O-])C1(C)C` [Example 211, 3-(6-chloro-3,3,4,4-tetramethyl-2-oxide-3,4-dihydroisoquinolin-1-yl)quinoline], the “degree of disease onset” value in test [1] and in test [2] was 0 each time.

Turning to `CC1(C)N=C(c2cnc3ccccc3c2)c2cccc(F)c2C1(C)C.O=[N+]([O-])O` [Example 158, 3-(5-fluoro-3,3,4,4-tetramethyl-3,4-dihydroisoquinolin-1-yl)quinoline nitrate], the “degree of disease onset” value in test [1] and in test [2] was 0 throughout. In the case of `CC1(c2ccc(F)cc2)Cc2ccccc2C(c2cnc3ccccc3c2)=N1` (stereo not drawn) [Example 72, 3-[3-(4-fluorophenyl)-3-methyl-3,4-dihydroisoquinolin-1-yl]quinoline], the “degree of disease onset” value in test [1] and in test [2] was 0 each time. In the case of `CC1(C)[N+]([O-])=C(c2cnc3ccccc3c2)c2ccccc2C1(F)F` [Example 218, 3-(4,4-difluoro-3,3-dimethyl-2-oxide-3,4-dihydroisoquinolin-1-yl)quinoline], the “degree of disease onset” value in test [1] and in test [2] was 0 throughout. Regarding `CC1(C)Cc2cc(Br)ccc2C(c2cnc3ccccc3c2)=N1` [Example 23, 3-(6-bromo-3,3-dimethyl-3,4-dihydroisoquinolin-1-yl)quinoline], the “degree of disease onset” value in test [1] was 0.

`CC1(Cc2ccccc2)Cc2ccccc2C(c2cnc3ccccc3c2)=N1` (stereo not drawn) [Example 79, 3-(3-Benzyl-3-methyl-3,4-dihydroisoquinolin-1-yl)quinoline]: the “degree of disease onset” value in test [1] and in test [2] was 0 throughout. Consider `CC1(C)c2cc(F)ccc2C(c2cnc3ccccc3c2)=[N+]([O-])C1(C)C` [Example 209, 3-(6-fluoro-3,3,4,4-tetramethyl-2-oxide-3,4-dihydroisoquinolin-1-yl)quinoline], for which the “degree of disease onset” value in test [1] and in test [2] was 0 throughout. As for `CC1(C)c2ccccc2C2(c3cnc4ccccc4c3)ON2C1(C)C` (stereo not drawn) [Example 196, 3,3,4,4-tetramethyl-8b-quinolin-3-yl-4,8b-dihydro-3H-oxazileno[3,2-a]isoquinoline], the “degree of disease onset” value in test [1] and in test [2] was 0 throughout. For `C=C1c2c(F)cccc2C(c2cnc3ccccc3c2)=NC1(C)C` [Example 175, 3-(5-fluoro-3,3-dimethyl-4-methylene-3,4-dihydroisoquinolin-1-yl)quinoline], the “degree of disease onset” value in test [1] was determined as 0.

In the case of `Fc1ccc(C2(CCl)Cc3ccccc3C(c3cnc4ccccc4c3)=N2)cc1` (stereo not drawn) [Example 75, 3-[3-chloromethyl-3-(4-fluorophenyl)-3,4-dihydroisoquinolin-1-yl]quinoline], the “degree of disease onset” value in test [1] and in test [2] was 0 each time. With `CC1(C)Cc2c(ccc(F)c2F)C(c2cnc3ccccc3c2)=N1` [Example 52, 3-(5,6-difluoro-3,3-dimethyl-3,4-dihydroisoquinolin-1-yl)quinoline], the “degree of disease onset” value in test [1] and in test [2] was 0 each time.

For the compound `CC1(C)N=C(c2cnc3ccccc3c2)c2cccc(F)c2C1F` (stereo not drawn) [Example 174, 3-(4,5-difluoro-3,3-dimethyl-3,4-dihydroisoquinolin-1-yl)quinoline], the “degree of disease onset” value in test [1] and in test [2] was 0 each time. For the compound `CC1(C)[N+]([O-])=C(c2cnc3ccccc3c2)c2cccc(F)c2C1(F)F` [Example 219, 3-(4,4,5-trifluoro-3,3-dimethyl-2-oxide-3,4-dihydroisoquinolin-1-yl)quinoline], the “degree of disease onset” value in test [1] and in test [2] was 0 in each case. For the compound `CC1(C)c2ccccc2C2(c3cnc4ccccc4c3)ON2C12CCCC2` (stereo not drawn) [Example 202, 4′,4′-dimethyl-8b′-quinolin-3-yl-4′,8b′-dihydrospiro[cyclopentane-1,3′-oxazileno[3,2-a]isoquinoline]], the “degree of disease onset” value in test [1] and in test [2] was 0 throughout. `CC1(C)Cc2c(ccc(Cl)c2Cl)C(c2cnc3ccccc3c2)=N1` [Example 53, 3-(5,6-dichloro-3,3-dimethyl-3,4-dihydroisoquinolin-1-yl)quinoline]: the “degree of disease onset” value in test [1] is 0. Regarding `CC1(C)N=C(c2cnc3ccccc3c2)c2cccc(F)c2C1(C)C.Cl` [Example 156, 3-(5-fluoro-3,3,4,4-tetramethyl-3,4-dihydroisoquinolin-1-yl)quinoline hydrochloride], the “degree of disease onset” value in test [1] and in test [2] was 0 in each case. `CC1(C)c2ccccc2C(c2cnc3ccccc3c2)=[N+]([O-])C12CCCCC2` [Example 217]: the “degree of disease onset” value in test [1] and in test [2] was 0 in each case. Consider `CC1(CC(F)(F)F)Cc2ccccc2C(c2cnc3ccccc3c2)=N1` (stereo not drawn) [Example 69, 3-(3-trifluoroethyl-3-methyl-3,4-dihydroisoquinolin-1-yl)quinoline], for which the “degree of disease onset” value in test [1] and in test [2] was 0 each time. Turning to `CC1c2c(Cl)cccc2C(c2cnc3ccccc3c2)=NC1(C)C` (stereo not drawn) [Example 121, 3-(5-chloro-3,3,4-trimethyl-3,4-dihydroisoquinolin-1-yl)quinoline], in test [1], the “degree of disease onset” value was 0.

In the case of `CC1(C)N=C(c2cnc3ccccc3c2)c2ccc(Cl)cc2C1(C)C` [Example 154, 3-(6-chloro-3,3,4,4-tetramethyl-3,4-dihydroisoquinolin-1-yl)quinoline], in test [1], the “degree of disease onset” value is 0. On the same count and under the same terms, the same measure for `CC1(C)Cc2cc(Cl)ccc2C(c2cnc3ccccc3c2)=N1` [Example 20, 3-(6-chloro-3,3-dimethyl-3,4-dihydroisoquinolin-1-yl)quinoline]: 0; for `CC1c2c(F)cccc2C(c2cnc3ccccc3c2)=NC1(C)C` (stereo not drawn) [Example 120, 3-(5-fluoro-3,3,4-trimethyl-3,4-dihydroisoquinolin-1-yl)quinoline]: 0.
